The nature of the series: Cell toxicity. The series is classed as cell-based.

For `C=C(C)[C@@H]1CC[C@]2(C(=O)O)CC[C@]3(C)[C@H](CC[C@@H]4[C@@]5(C)CC[C@H](OC(=O)CC(C)(C)C(=O)O)C(C)(C)[C@@H]5CC[C@]43C)[C@@H]12` [Bevirimat, 3-O-(3′,3′-dimethylsuccinyl)betulinic acid], the IC50 (in general, the concentration needed to halve the response being measured) was greater than 300 µM.
